Experimental data as given in article PMC10141580, “Cyclic Dichalcogenides Extend the Reach of Bioreductive Prodrugs to Harness Thiol/Disulfide Oxidoreductases: Applications to seco-Duocarmycins Targeting the Thioredoxin System” (ACS Central Science, 2023).
Read-outs that look alike come from different tables or passages of the source.

How the values were obtained:
[1] = system: NCI-60 standardized human tumor cell line panel; test: cells; type: cell-based
HeLa-HRE cells = test: Resazurin cytotoxicity assay, HeLa-HRE, 48 h
Protocol: We used A549 lung cancer and HeLa cervical cancer cell lines for initial screening of the prodrugs.
HeLa-HRE cells were treated with prodrugs of the
Dose -response curves were calculated from at least 27 incremental single concentrations over a
range of at least three log units.

[2] = cell line A549/ATCC (LC:A549/ATCC), TMI sheet
[3] = cell line BT-549 (BR:BT-549), TMI sheet
[4] = cell line CCRF-CEM (LE:CCRF-CEM), TMI sheet
[5] = cell line COLO 205 (CO:COLO 205), TMI sheet
[6] = cell line EKVX (LC:EKVX), TMI sheet
[7] = cell line HCC-2998 (CO:HCC-2998), TMI sheet
[8] = cell line HCT-15 (CO:HCT-15), TMI sheet
[9] = cell line HCT-116 (CO:HCT-116), TMI sheet
[10] = cell line HL-60(TB) (LE:HL-60(TB)), TMI sheet
[11] = cell line HOP-62 (LC:HOP-62), TMI sheet
[12] = cell line HOP-92 (LC:HOP-92), TMI sheet
[13] = cell line HT29 (CO:HT29), TMI sheet
[14] = cell line K-562 (LE:K-562), TMI sheet
[15] = cell line KM12 (CO:KM12), TMI sheet
[16] = cell line LOX IMVI (ME:LOX IMVI), TMI sheet
[17] = cell line M14 (ME:M14), TMI sheet
[18] = cell line MALME-3M (ME:MALME-3M), TMI sheet
[19] = cell line MCF7 (BR:MCF7), TMI sheet
[20] = cell line MDA-MB-435 (ME:MDA-MB-435), TMI sheet
[21] = cell line MOLT-4 (LE:MOLT-4), TMI sheet
[22] = cell line NCI-H23 (LC:NCI-H23), TMI sheet
[23] = cell line NCI-H226 (LC:NCI-H226), TMI sheet
[24] = cell line RPMI-8226 (LE:RPMI-8226), TMI sheet
[25] = cell line SF-268 (CNS:SF-268), TMI sheet
[26] = cell line SF-295 (CNS:SF-295), TMI sheet
[27] = cell line SF-539 (CNS:SF-539), TMI sheet
[28] = cell line SK-MEL-5 (ME:SK-MEL-5), TMI sheet
[29] = cell line SK-MEL-28 (ME:SK-MEL-28), TMI sheet
[30] = cell line SNB-19 (CNS:SNB-19), TMI sheet
[31] = cell line SR (LE:SR), TMI sheet
[32] = cell line SW-620 (CO:SW-620), TMI sheet
[33] = cell line T-47D (BR:T-47D), TMI sheet
[34] = cell line U251 (CNS:U251), TMI sheet
[35] = cell line UACC-62 (ME:UACC-62), TMI sheet
[36] = cell line UACC-257 (ME:UACC-257), TMI sheet

For COc1cc2cc(C(=O)N3C[C@@H](CCl)c4c3cc(OC(=O)N(CCC(=O)N3CCN(C)CC3)[C@H]3CCSSC3)c3ccccc43)[nH]c2c(OC)c1OC [P-SS60-CBI-TMI], the GI50 ([1]; UACC-62, read-out: GI50) was 270 nM, the GI50 ([1]; UACC-257, read-out: GI50) was 630 nM and the “NCI-60 screening: Log(GI50)” value [1, 2] was -6.82. The “NCI-60 screening: Log(RedIndex)” value [1, 2] was 1.12, the GI50 ([1]; cell line A549/ATCC (LC:A549/ATCC), TMI sheet, read-out: NCI-60 screening: Raw GI50) was 150 nM and the “NCI-60 screening: Log(GI50)” value [1, 3] was -6.64. The “NCI-60 screening: Log(RedIndex)” value [1, 3] was 0.84, the GI50 ([1]; cell line BT-549 (BR:BT-549), TMI sheet, read-out: NCI-60 screening: Raw GI50) was 230 nM and the “NCI-60 screening: Log(GI50)” value [1, 4] was -6.66. The “NCI-60 screening: Log(RedIndex)” value [1, 4] was 0.66, the GI50 ([1]; cell line CCRF-CEM (LE:CCRF-CEM), TMI sheet, read-out: NCI-60 screening: Raw GI50) was 220 nM and the “NCI-60 screening: Log(GI50)” value [1, 5] was -6.47. The “NCI-60 screening: Log(RedIndex)” value [1, 5] was 0.6, the “NCI-60 screening: Log(GI50)” value [1, 6] was -6.5 and the “NCI-60 screening: Log(RedIndex)” value [1, 6] was 0.79. For the same compound, the “NCI-60 screening: Log(GI50)” value [1, 7] was -6.8, the “NCI-60 screening: Log(RedIndex)” value [1, 7] was 0.98 and the GI50 ([1]; cell line HCC-2998 (CO:HCC-2998), TMI sheet, read-out: NCI-60 screening: Raw GI50) was 160 nM. The “NCI-60 screening: Log(GI50)” value [1, 8] was -6.59, the “NCI-60 screening: Log(RedIndex)” value [1, 8] was 0.82 and the GI50 ([1]; cell line HCT-15 (CO:HCT-15), TMI sheet, read-out: NCI-60 screening: Raw GI50) was 260 nM. The “NCI-60 screening: Log(GI50)” value [1, 9] was -6.8, the “NCI-60 screening: Log(RedIndex)” value [1, 9] was 0.98 and the GI50 ([1]; cell line HCT-116 (CO:HCT-116), TMI sheet, read-out: NCI-60 screening: Raw GI50) was 160 nM. For the same compound, the “NCI-60 screening: Log(GI50)” value [1, 10] was -6.92, the “NCI-60 screening: Log(RedIndex)” value [1, 10] was 0.8 and the “NCI-60 screening: Log(GI50)” value [1, 11] was -6.96. The “NCI-60 screening: Log(RedIndex)” value [1, 11] was 0.73, the “NCI-60 screening: Log(GI50)” value [1, 12] was -6.46 and the “NCI-60 screening: Log(RedIndex)” value [1, 12] was 0.86. The “NCI-60 screening: Log(GI50)” value [1, 13] was -6.57, the “NCI-60 screening: Log(RedIndex)” value [1, 13] was 0.75 and the GI50 ([1]; cell line HT29 (CO:HT29), TMI sheet, read-out: NCI-60 screening: Raw GI50) was 270 nM. For the same compound, the “NCI-60 screening: Log(GI50)” value [1, 14] was -6.79, the “NCI-60 screening: Log(RedIndex)” value [1, 14] was 0.62 and the GI50 ([1]; cell line K-562 (LE:K-562), TMI sheet, read-out: NCI-60 screening: Raw GI50) was 160 nM. The “NCI-60 screening: Log(GI50)” value [1, 15] was -6.57, the “NCI-60 screening: Log(RedIndex)” value [1, 15] was 0.89 and the GI50 ([1]; cell line KM12 (CO:KM12), TMI sheet, read-out: NCI-60 screening: Raw GI50) was 270 nM. For the same compound, the “NCI-60 screening: Log(GI50)” value [1, 16] was -6.68, the “NCI-60 screening: Log(RedIndex)” value [1, 16] was 0.72 and the GI50 ([1]; cell line LOX IMVI (ME:LOX IMVI), TMI sheet, read-out: NCI-60 screening: Raw GI50) was 210 nM. For the same compound, the “NCI-60 screening: Log(GI50)” value [1, 17] was -6.72, the “NCI-60 screening: Log(RedIndex)” value [1, 17] was 0.9 and the GI50 ([1]; cell line M14 (ME:M14), TMI sheet, read-out: NCI-60 screening: Raw GI50) was 190 nM. The “NCI-60 screening: Log(GI50)” value [1, 18] was -6.55, the “NCI-60 screening: Log(RedIndex)” value [1, 18] was 0.75 and the “NCI-60 screening: Log(GI50)” value [1, 19] was -7.45. For the same compound, the “NCI-60 screening: Log(RedIndex)” value [1, 19] was 0.95, the “NCI-60 screening: Log(GI50)” value [1, 20] was -6.67 and the “NCI-60 screening: Log(RedIndex)” value [1, 20] was 0.92. The GI50 ([1]; cell line MDA-MB-435 (ME:MDA-MB-435), TMI sheet, read-out: NCI-60 screening: Raw GI50) was 210 nM, the “NCI-60 screening: Log(GI50)” value [1, 21] was -7.05 and the “NCI-60 screening: Log(RedIndex)” value [1, 21] was 0.82. For the same compound, the “NCI-60 screening: Log(GI50)” value [1, 22] was -7.26, the “NCI-60 screening: Log(RedIndex)” value [1, 22] was 0.93 and the “NCI-60 screening: Log(GI50)” value [1, 23] was -6.36. For the same compound, the “NCI-60 screening: Log(RedIndex)” value [1, 23] was 0.52, the “NCI-60 screening: Log(GI50)” value [1, 24] was -6.65 and the “NCI-60 screening: Log(RedIndex)” value [1, 24] was 0.82. For the same compound, the GI50 ([1]; cell line RPMI-8226 (LE:RPMI-8226), TMI sheet, read-out: NCI-60 screening: Raw GI50) was 220 nM, the “NCI-60 screening: Log(GI50)” value [1, 25] was -6.73 and the “NCI-60 screening: Log(RedIndex)” value [1, 25] was 0.92. For the same compound, the GI50 ([1]; cell line SF-268 (CNS:SF-268), TMI sheet, read-out: NCI-60 screening: Raw GI50) was 190 nM, the “NCI-60 screening: Log(GI50)” value [1, 26] was -6.84 and the “NCI-60 screening: Log(RedIndex)” value [1, 26] was 1.03. The “NCI-60 screening: Log(GI50)” value [1, 27] was -6.78, the “NCI-60 screening: Log(RedIndex)” value [1, 27] was 0.89 and the GI50 ([1]; cell line SF-539 (CNS:SF-539), TMI sheet, read-out: NCI-60 screening: Raw GI50) was 170 nM. For the same compound, the “NCI-60 screening: Log(GI50)” value [1, 28] was -6.78, the “NCI-60 screening: Log(RedIndex)” value [1, 28] was 0.99 and the GI50 ([1]; cell line SK-MEL-5 (ME:SK-MEL-5), TMI sheet, read-out: NCI-60 screening: Raw GI50) was 170 nM. The “NCI-60 screening: Log(GI50)” value [1, 29] was -6.53, the “NCI-60 screening: Log(RedIndex)” value [1, 29] was 1.09 and the GI50 ([1]; cell line SK-MEL-28 (ME:SK-MEL-28), TMI sheet, read-out: NCI-60 screening: Raw GI50) was 290 nM. The “NCI-60 screening: Log(GI50)” value [1, 30] was -6.6, the “NCI-60 screening: Log(RedIndex)” value [1, 30] was 0.94 and the GI50 ([1]; cell line SNB-19 (CNS:SNB-19), TMI sheet, read-out: NCI-60 screening: Raw GI50) was 250 nM. The “NCI-60 screening: Log(GI50)” value [1, 31] was -7.47, the “NCI-60 screening: Log(RedIndex)” value [1, 31] was 0.91 and the “NCI-60 screening: Log(GI50)” value [1, 32] was -6.66. For the same compound, the “NCI-60 screening: Log(RedIndex)” value [1, 32] was 0.93, the GI50 ([1]; cell line SW-620 (CO:SW-620), TMI sheet, read-out: NCI-60 screening: Raw GI50) was 220 nM and the “NCI-60 screening: Log(GI50)” value [1, 33] was -6.16. For the same compound, the “NCI-60 screening: Log(RedIndex)” value [1, 33] was 0.44, the “NCI-60 screening: Log(GI50)” value [1, 34] was -6.79 and the “NCI-60 screening: Log(RedIndex)” value [1, 34] was 0.96. For the same compound, the GI50 ([1]; cell line U251 (CNS:U251), TMI sheet, read-out: NCI-60 screening: Raw GI50) was 160 nM, the “NCI-60 screening: Log(GI50)” value [1, 35] was -6.57 and the “NCI-60 screening: Log(RedIndex)” value [1, 35] was 0.75. For the same compound, the GI50 ([1]; cell line UACC-62 (ME:UACC-62), TMI sheet, read-out: NCI-60 screening: Raw GI50) was 270 nM, the “NCI-60 screening: Log(GI50)” value [1, 36] was -6.2 and the “NCI-60 screening: Log(RedIndex)” value [1, 36] was 0.5. For the same compound, the GI50 ([1]; read-out: NCI-60 screening: Raw GI50) was 230 nM, the “IC50(HeLa)/IC50(A549)” value (HeLa-HRE cells; ratio HeLa vs A549) was 2.3 and the IC50 (HeLa-HRE cells; read-out: IC50(nM): HeLa, HeLa, 48 h) was 420 nM.
